# Assay results as given in US5300279A, “Organic amine phosphonic acid complexes for the treatment of calcific tumors” (The Dow Chemical Company, priority 1990, dated 1994).
# Where two headings read alike, the source gives them in different places.
# Key:
# [1] = Description: Quantitative biodistributions were obtained by injecting 50-100 microliters of the composition into the tail vein of unanesthetized male Sprague Dawley rats. The rats were then placed in cages lined with absorbent paper in order to collect all urine excreted prior to sacrifice. After a given period of time, the rats were sacrificed by cervical dislocation and the various tissues dissected. The samples were then rinsed with saline, blotted dry on absorbent paper and weighed. The radioactivity in the samples was measured with a NaI scintillation counter.
# Whenever in the following examples and tables data is presented on the administered dose of radioactivity, the numbers given represent the percentage of the administered dose which localized in the indicated tissue. The ratios of radioactivity observed in bone relative to blood and muscle were calculated based on the percent dose per gram in the bone and in the blood and muscle. Whenever the ratios of radioactivity found in bone to that found in nonosseous tissue is given, the calculation was made as indicated above on a percent dose per gram basis.
# A series of rats was injected with compositions containing Sm-153 EDTMP (compositions prepared as in Example 2) and sacrified in groups of five at various intervals.
# tumor = tested on: tumor
# Experimental: An English Setter with a tumor in his pelvis was injected with approximately 19 mCi of a composition containing Sm-153-EDTMP. After 2 hours, the dog was imaged using a scintillation camera.
# An Irish Setter with a tumor in the femur was injected with a composition containing Sm-153-EDTMP. The leg was amputated and samples of the tumor and normal bone were analyzed for Sm-153.
# An Irish setter with undifferentiated sarcoma metastatic to bone was treated with 16 mCi (0.57 mCi/kg) of a composition containing Sm-153-EDTMP. […] After approximately 3 months, when signs of lameness began to reappear, the dog was given a second treatment of 15 mCi (0.49 mCi/kg), of a composition containing Sm-153-EDTMP.
# [2] = tested on: white blood cells and platelets; settings: for platelet and white blood cell levels: 2-3 weeks after administration
# Experimental: A series of normal beagles was treated with various dose levels of a composition containing Sm-153-EDTMP. White blood cell and platelet counts were measured weekly to check for signs of bone marrow supression.
# [3] = for Percent Injected Dose Remaining in Whole Blood, Average: average of 5 patients
# Experimental: (§1) Sterile pyrogen-free vials were prepared to contain 210 mg of EDTMP and 140 mg NAOH by freeze-drying a solution containing appropriate amounts of EDTMP and NAOH. The vials were sealed under vacuum. To prepare one of the compositons of the invention, 6 ml of a solution containing Sm-153 (approximately 3×10^-4 M in Sm) in 0.1M HCl was injected into the sealed vial through a septum.
# Five humans with metastatic bone cancer (three with lung cancer and two with prostate cancer as the primary site) were injected with a composition containing 2 mCi of Sm-153-EDTMP. Blood samples were taken intermittently to determine the fraction of the Sm-153 remaining in the blood.
# [4] = remark: listed apart in the source
# Experimental: as §1
# Urine was collected and counted to determine the percentage of the radioactivity excreted as a function of time after injection.
# cancerous lesions = assay: scintigraphic imaging in humans with metastatic bone cancer; type: in vivo
# Experimental: Scintigraphic images were obtained two hours post injection and were used for comparison with images previously obtained using Tc-99m-HDP (hydroxymethylenediphosphonate), a commercially available diagnostic bone imaging agent.
# The uptake observed for each radionuclide in selected lesions compared to its uptake in normal bone was determined using digitized images.
# [5] = humans
structure (smiles),measurement,setting,value
O=P([O-])(O)CN(CCN(CP(=O)([O-])O)CP(=O)(O)O)CP(=O)([O-])O.[153Sm+3] [Example 2],"Average Percent of Injected Dose, Blood",[1]; 1 Hour,.532% of Injected Dose
same,"Average Percent of Injected Dose, Kidneys",[1]; 1 Hour,.466% of Injected Dose
same,"Average Percent of Injected Dose, Liver",[1]; 1 Hour,.322% of Injected Dose
same,"Average Percent of Injected Dose, Skeleton",[1]; 1 Hour,58% of Injected Dose
same,"Average Percent of Injected Dose, Urine",[1]; 1 Hour,47% of Injected Dose
same,Bone/Blood,[1]; 1 Hour,120
same,Bone/Muscle,[1]; 1 Hour,300
same,"Average Percent of Injected Dose, Blood",[1]; 2 Hours,.032% of Injected Dose
same,"Average Percent of Injected Dose, Kidneys",[1]; 2 Hours,.254% of Injected Dose
same,"Average Percent of Injected Dose, Liver",[1]; 2 Hours,.252% of Injected Dose
same,"Average Percent of Injected Dose, Skeleton",[1]; 2 Hours,58% of Injected Dose
same,"Average Percent of Injected Dose, Urine",[1]; 2 Hours,49% of Injected Dose
same,Bone/Blood,[1]; 2 Hours,1800
same,Bone/Muscle,[1]; 2 Hours,1500
same,"Average Percent of Injected Dose, Blood",[1]; 5 Hours,.008% of Injected Dose
same,"Average Percent of Injected Dose, Kidneys",[1]; 5 Hours,.364% of Injected Dose
same,"Average Percent of Injected Dose, Liver",[1]; 5 Hours,.370% of Injected Dose
same,"Average Percent of Injected Dose, Skeleton",[1]; 5 Hours,59% of Injected Dose
same,"Average Percent of Injected Dose, Urine",[1]; 5 Hours,46% of Injected Dose
same,Bone/Blood,[1]; 5 Hours,4200
same,Bone/Muscle,[1]; 5 Hours,3600
same,"Average Percent of Injected Dose, Blood",[1]; 15 Min.,5.852% of Injected Dose
same,"Average Percent of Injected Dose, Kidneys",[1]; 15 Min.,1.745% of Injected Dose
same,"Average Percent of Injected Dose, Liver",[1]; 15 Min.,.959% of Injected Dose
same,"Average Percent of Injected Dose, Skeleton",[1]; 15 Min.,48% of Injected Dose
same,"Average Percent of Injected Dose, Urine",[1]; 15 Min.,28% of Injected Dose
same,Bone/Blood,[1]; 15 Min.,7
same,Bone/Muscle,[1]; 15 Min.,30
same,"Average Percent of Injected Dose, Blood",[1]; 24 Hours,.007% of Injected Dose
same,"Average Percent of Injected Dose, Kidneys",[1]; 24 Hours,.250% of Injected Dose
same,"Average Percent of Injected Dose, Liver",[1]; 24 Hours,.349% of Injected Dose
same,"Average Percent of Injected Dose, Skeleton",[1]; 24 Hours,52% of Injected Dose
same,"Average Percent of Injected Dose, Urine",[1]; 24 Hours,55% of Injected Dose
same,Bone/Blood,[1]; 24 Hours,6700
same,Bone/Muscle,[1]; 24 Hours,2400
same,"Average Percent of Injected Dose, Blood",[1]; 30 Min.,2.304% of Injected Dose
same,"Average Percent of Injected Dose, Kidneys",[1]; 30 Min.,.805% of Injected Dose
same,"Average Percent of Injected Dose, Liver",[1]; 30 Min.,.526% of Injected Dose
same,"Average Percent of Injected Dose, Skeleton",[1]; 30 Min.,53% of Injected Dose
same,"Average Percent of Injected Dose, Urine",[1]; 30 Min.,42% of Injected Dose
same,Bone/Blood,[1]; 30 Min.,20
same,Bone/Muscle,[1]; 30 Min.,70
same,"Average Percent of Injected Dose, Blood",[1]; 48 Hours,.006% of Injected Dose
same,"Average Percent of Injected Dose, Kidneys",[1]; 48 Hours,.286% of Injected Dose
same,"Average Percent of Injected Dose, Liver",[1]; 48 Hours,.458% of Injected Dose
same,"Average Percent of Injected Dose, Skeleton",[1]; 48 Hours,60% of Injected Dose
same,"Average Percent of Injected Dose, Urine",[1]; 48 Hours,50% of Injected Dose
same,Bone/Blood,[1]; 48 Hours,8200
same,Bone/Muscle,[1]; 48 Hours,2800
same,"Average Percent of Injected Dose, Blood",[1]; 72 Hours,.006% of Injected Dose
same,"Average Percent of Injected Dose, Kidneys",[1]; 72 Hours,.216% of Injected Dose
same,"Average Percent of Injected Dose, Liver",[1]; 72 Hours,.492% of Injected Dose
same,"Average Percent of Injected Dose, Skeleton",[1]; 72 Hours,57% of Injected Dose
same,"Average Percent of Injected Dose, Urine",[1]; 72 Hours,53% of Injected Dose
same,Bone/Blood,[1]; 72 Hours,7800
same,Bone/Muscle,[1]; 72 Hours,3400
same,clearance of the radioactivity from the skeletal system,"[1]; rats, up to 72 hours, words",no significant clearance of the radioactivity from the skeletal system
same,blood clearance,"[1]; rats, words",rapid blood clearance
same,uptake of the radioactivity in bone,"[1]; rats, words",rapid uptake of the radioactivity in bone
same,uptake of radioactivity in the area of the tumor (scintillation scan),"tumor; English Setter, tumor in pelvis, approximately 19 mCi, 2 hours",high uptake of radioactivity in the area of the tumor
same,scans compared with Tc-99m-MDP,"tumor; English Setter, 2 hours",looked very similar to an earlier scan performed using Tc-99m-MDP
same,lesion to normal bone ratio,"tumor; English Setter, compared with Tc-99m",very similar to that for To-99m
same,"amount of Sm-153 in the tumor relative to non-lesionous bone, per gram basis","tumor; Irish Setter, tumor in femur, same leg",15-20 times
same,scans compared with Tc-99m-MDP,"tumor; Irish setter, sarcoma metastatic to bone",very similar to scans obtained earlier using Tc-99m-MDP
same,uptake of Sm-153 in the area of the lesion (scintillation scans),"tumor; Irish setter, sarcoma metastatic to bone, 16 mCi (0.57 mCi/kg)",high uptake of Sm-153 in the area of the lesion
same,platelet and white blood cell levels,[2]; 0.5 mCi Sm-153/kg,smaller decrease in the levels of platelets and white blood cells
same,time to return of white cells and platelets to normal levels,"[2]; 0.5 mCi Sm-153/kg, few animals that fell below normal",4-5 weeks
same,time to return of white cells and platelets to normal levels,[2]; 1.0 mCi Sm-153/kg,4-5 weeks
same,platelet and white blood cell levels,[2]; 1.0 mCi Sm-153/kg,slight decrease in both platelets and white blood cells
same,"Percent Injected Dose Remaining in Whole Blood, Average",[3]; 5 min.,31.63 Percent Injected Dose
same,"Percent Injected Dose Remaining in Whole Blood, Average",[3]; 15 min.,20.90 Percent Injected Dose
same,"Percent Injected Dose Remaining in Whole Blood, Average",[3]; 30 min.,15.77 Percent Injected Dose
same,"Percent Injected Dose Remaining in Whole Blood, Average",[3]; 60 min.,9.53 Percent Injected Dose
same,"Percent Injected Dose Remaining in Whole Blood, Average",[3]; 120 min.,5.17 Percent Injected Dose
same,"Percent Injected Dose Remaining in Whole Blood, Average",[3]; 180 min.,3.28 Percent Injected Dose
same,"Percent Injected Dose Remaining in Whole Blood, Average",[3]; 240 min.,2.08 Percent Injected Dose
same,concentration of radioactivity in red cells,[3]; humans,no significant concentration of radioactivity in red cells
same,radioactivity in the plasma fraction,[3]; humans,all of the measured activity was in the plasma fraction
same,clearance of radioactivity from the blood,"[3]; humans, words",the radioactivity cleared very rapidly from the blood
same,"Percent Excretion in Urine, Average","[4]; 1 Hr., average of 5 patients",26.13%
same,"Percent Excretion in Urine, Average","[4]; 2 Hr., average of 5 patients",7.15%
same,"Percent Excretion in Urine, Average","[4]; 4-8 Hr., average of 5 patients",9.02%
same,"Percent Excretion in Urine, Average","[4]; 4 Hr., average of 5 patients",10.95%
same,"Percent Excretion in Urine, Average","[4]; 8-12 Hr., average of 5 patients",1.76%
same,"Percent Excretion in Urine, Average","[4]; 12-24 Hr., average of 5 patients",1.07%
same,"Percent Excretion in Urine, 24 Hr Total, Average","[4]; 24 Hr Total, average of 5 patients",56.09%
same,clearance of radioactivity into the urine,"[4]; humans, words",cleared rapidly
same,Sm-153 concentration in cancerous lesions,cancerous lesions; compared with dogs,"high, selective and similar to that observed in dogs"
same,localization of radioactivity in lesions vs normal bone compared with Tc-99m-HDP,cancerous lesions; digitized images,localization of radioactivity in the lesions to a similar extent
same,visibility of cancerous lesions compared with Tc-99m-HDP,cancerous lesions; qualitative comparison of images,all cancerous lesions observable with Tc-99m-HDP are seen equally well with Sm-153-EDTMP
same,retention of radioactivity in the kidneys,cancerous lesions; two hour post injection images,no observable retention of radioactivity in the kidneys
same,localization of Sm-153 in scintigraphic images,cancerous lesions; two hours post injection,localized in skeletal tissue with no significant uptake and retention in non-osseous tissues
same,"blood profiles (white blood cell, red blood cell, platelet count) and serum chemistry profiles",[5]; post-injection vs preinjection,No significant changes
same,vital signs,[5]; several post injection times vs preinjection,not significantly different than preinjection values
